Experimental data: patent publication US20120258980A1, “Antibacterial Agent for Drug-Resistant Bacteria, Method for Screening for Same, and Use of Same” (priority 2009, published 2012)
≈ marks a conversion by molar mass, not a printed value. Read-outs that look alike come from different tables or passages of the source.

Experiments:
[1] = tested on: methicillin-susceptible S. aureus (MSSA), MRSA and mutants thereof; test: MIC measurement, Test Example 3 (MSSA, MRSA and sequential gyrA/grlA quinolone-resistant mutants); type: cell-based, Staphylococcus aureus; conditions: for MIC: Staphylococcus aureus
Description: That is, the first-step quinolone-resistant mutants are bacterial strains which are the same as their parent strains (clinical isolates) except that the genes shown in the corresponding parts of Table 1-1 are mutated. The second-step quinolone-resistant mutants are bacterial strains which are the same as the first-step quinolone-resistant mutants except that the genes shown in the corresponding parts of Table 1-1 are further mutated. The third-step quinolone-resistant mutants are bacterial strains which are the same as the second-step quinolone-resistant mutants except that the genes shown in the corresponding parts of Table 1-1 are further mutated. The fourth-step quinolone-resistant strain is a bacterial strain which is the same as the third-step quinolone-resistant mutant bacteria except that the gene shown in the corresponding part of Table 1-1 is further mutated.
(§1) Each of the bacterial strains listed in Table 1-1 was shake-cultured at 37° C. overnight in 4 mL of a medium (Tryptical Soy Broth: TSB, product of Becton Dickinson and Company). FDA209P was used as a control.
(§2) After completion of culturing, the resultant culture was suspended in a cation-adjusted Mueller Hinton Broth (CAMHB, product of Becton Dickinson and Company). Then, the obtained bacterial culture was adjusted in absorbance with the CAMHB so that the absorbance at 578 nm of the bacterial culture was adjusted to 0.3 measured by an absorption spectrometer. In addition, the resultant bacterial culture was 500-fold diluted with the CAMHB.
(§3) Each of the 500-fold diluted, pre-cultured bacterial cultures was added at 50 μL/well to the CAMHB containing the quinolones and the nybomycins at various concentrations (50 μL/well), followed by statically culturing at 37° C. overnight.
(§4) After completion of culturing, the growth of the bacteria was visually determined based on turbidity to measure MIC in each bacterial strain.

[2] = tested on: MRSA, CA-MRSA and MSSA of Staphylococcus aureus; test: MIC measurement, Test Example 4 (MRSA, CA-MRSA and MSSA strains); type: cell-based; conditions: for MIC: Staphylococcus aureus
Method: as §1, §2, §3, §4
Glycopeptides, imipenem, quinolones and nybomycins were studied for antibacterial activity against the bacterial strains listed in Table 2-1; i.e., MRSA, CA-MRSA and MSSA of Staphylococcus aureus.

VRSA clinical isolates = test: microbe, parasite or virus in culture; type: cell-based; conditions: Staphylococcus aureus
Method: as §1, §2, §3, §4
Here, the glycopeptides used were VCM and TEIC. The β-lactam used was OXA.

Enterococcus faecalis = test: MIC measurement, Test Example 6 (enterococcus); type: cell-based; conditions: Enterococcus faecalis, read-out: MIC
Method: as §1, §2, §3, §4
Quinolones and nybomycins were evaluated for antibacterial activity against Enterococcus faecalis shown in Table 6, wherein the other strains than NCTC12201 and NCTC12203 were subdivided from Shionogi & Co., Ltd (note that these strains are available also from the Department of Bacteriology, Juntendo University). The NCTC strains are both vancomycin-resistant E. faecalis and available from the National Collection of Type Cultures (NCTC).

[3] = ATCC 29213 / MRSA / MSSA, ATCC 29213, MSSA
[4] = FDA209P / MRSA / MSSA, FDA209P, MSSA
[5] = MRSA / MSSA / NCTC 8325, NCTC 8325, MSSA
[6] = MRSA / MSSA / USA300, USA300 FPR3757, CA-MRSA

Cc1cc(=O)n(C)c2c3c4c(cc12)c(C)cc(=O)n4CO3 [DNM, deoxynybomycin]
MIC ([1]; MR5867-2, second-step mutant, further gyrA S84L): ≤ 0.063 µg/mL | MIC ([1]; MR5867-3, third-step mutant, further grlA S80F): ≤ 0.063 µg/mL | MIC ([1]; MR5867-4, fourth-step mutant, further gyrA E88K): ≤ 0.063 µg/mL | MIC ([1]; MS5935-2, second-step mutant, further gyrA S84L): 0.5 µg/mL (≈ 1.77 µM) | MIC ([1]; MS5935-3, third-step mutant, further grlA E84K): 0.5 µg/mL (≈ 1.77 µM) | MIC ([1]; MS5952-2, second-step mutant, further gyrA S84L): 0.5 µg/mL (≈ 1.77 µM) | MIC ([1]; MS5952-3, third-step mutant, further grlA A116V): ≤ 0.063 µg/mL | antibacterial activity, comparison between NM and DNM ([1]; Table 1-2 strains): higher than that of NM | MIC [2, 3]: 16 µg/mL (≈ 56.7 µM) | MIC ([2]; COL, MRSA): > 64 µg/mL | MIC [2, 4]: 8 µg/mL (≈ 28.3 µM) | MIC ([2]; ISA12-1, MRSA): 32 µg/mL (≈ 113 µM) | MIC ([2]; ISA12-2, MRSA): 16 µg/mL (≈ 56.7 µM) | MIC ([2]; ISA35-1, MRSA): 64 µg/mL (≈ 227 µM) | MIC ([2]; ISA37-1, MSSA): > 64 µg/mL | MIC ([2]; ISA49-1, MSSA): 16 µg/mL (≈ 56.7 µM) | MIC ([2]; ISA51-1, MSSA): 8 µg/mL (≈ 28.3 µM) | MIC ([2]; ISA56-3, MRSA): > 64 µg/mL | MIC ([2]; ISA58-1, MRSA): 8 µg/mL (≈ 28.3 µM) | MIC ([2]; ISA62-1, MRSA): > 64 µg/mL | MIC ([2]; ISA73-1, MSSA): > 64 µg/mL | MIC ([2]; KBSA32, MRSA): 32 µg/mL (≈ 113 µM) | MIC ([2]; KBSA34, MRSA): > 64 µg/mL | MIC ([2]; KBSA72, MRSA): ≤ 0.063 µg/mL | MIC ([2]; KBSA96, MRSA): ≤ 0.063 µg/mL | MIC ([2]; KBSA171, MRSA): ≤ 0.063 µg/mL | MIC ([2]; KSA24, MRSA): 0.125 µg/mL (≈ 0.443 µM) | MIC ([2]; KSA31, MRSA): 0.25 µg/mL (≈ 0.886 µM) | MIC ([2]; KSA36, MRSA): ≤ 0.063 µg/mL | MIC [2, 5]: > 64 µg/mL | MIC [2, 6]: 0.125 µg/mL (≈ 0.443 µM) | MIC ([2]; MW2, CA-MRSA): 64 µg/mL (≈ 227 µM) | MIC ([2]; N315, MRSA): 32 µg/mL (≈ 113 µM) | antibacterial activity, comparison between NM and DNM ([2]; against Staphylococcus aureus): higher than that of NM | MIC (VRSA clinical isolates; VRS1, VRSA, Michigan): ≤ 0.063 µg/mL | MIC (VRSA clinical isolates; VRS2, VRSA, Pennsylvania): 0.125 µg/mL (≈ 0.443 µM) | MIC (VRSA clinical isolates; VRS3, VRSA, New York): ≤ 0.063 µg/mL | MIC (VRSA clinical isolates; VRS4, VRSA, New York): ≤ 0.063 µg/mL | MIC (VRSA clinical isolates; VRS5, VRSA, Michigan): ≤ 0.063 µg/mL | MIC (VRSA clinical isolates; VRS6, VRSA, Michigan): ≤ 0.063 µg/mL | MIC (VRSA clinical isolates; VRS7, VRSA, Michigan): 0.125 µg/mL (≈ 0.443 µM) | MIC (Enterococcus faecalis; E. faecalis 36-15672, quinolone-susceptible enterococci): > 64 µg/mL | MIC (Enterococcus faecalis; E. faecalis 36-15673, quinolone-susceptible enterococci): > 64 µg/mL | MIC (Enterococcus faecalis; E. faecalis 36-15678, quinolone-susceptible enterococci): > 64 µg/mL | MIC (Enterococcus faecalis; E. faecalis 36-15686, quinolone-resistant enterococci): 2 µg/mL (≈ 7.08 µM) | MIC (Enterococcus faecalis; E. faecalis 36-15688, quinolone-susceptible enterococci): > 64 µg/mL | MIC (Enterococcus faecalis; E. faecalis 36-15694, quinolone-resistant enterococci): 2 µg/mL (≈ 7.08 µM) | MIC (Enterococcus faecalis; E. faecalis 36-15696, quinolone-susceptible enterococci): > 64 µg/mL | MIC (Enterococcus faecalis; E. faecalis 36-15703, quinolone-resistant enterococci): 0.25 µg/mL (≈ 0.886 µM) | MIC (Enterococcus faecalis; E. faecalis 36-15716, quinolone-resistant enterococci): 4 µg/mL (≈ 14.2 µM) | MIC (Enterococcus faecalis; E. faecalis 36-15718, quinolone-susceptible enterococci): 32 µg/mL (≈ 113 µM) | MIC (Enterococcus faecalis; E. faecalis 36-15720, quinolone-susceptible enterococci): > 64 µg/mL | MIC (Enterococcus faecalis; E. faecalis 36-15722, quinolone-resistant enterococci): 4 µg/mL (≈ 14.2 µM) | MIC (Enterococcus faecalis; E. faecalis 36-15726, quinolone-resistant enterococci): 2 µg/mL (≈ 7.08 µM) | MIC (Enterococcus faecalis; E. faecalis 36-15730, quinolone-susceptible enterococci): 64 µg/mL (≈ 227 µM) | MIC (Enterococcus faecalis; E. faecalis 36-15736, quinolone-susceptible enterococci): > 64 µg/mL | MIC (Enterococcus faecalis; E. faecalis 36-15741, quinolone-susceptible enterococci): > 64 µg/mL | MIC (Enterococcus faecalis; NCTC 12201 / VRE, E. faecalis NCTC12201, vancomycin-resistant (VRE), quinolone-susceptible enterococci): 16 µg/mL (≈ 56.7 µM) | MIC (Enterococcus faecalis; NCTC 12203 / VRE, E. faecalis NCTC12203, vancomycin-resistant (VRE), quinolone-susceptible enterococci): > 64 µg/mL

CN[C@H](CC(C)C)C(=O)N[C@H]1C(=O)N[C@@H](CC(N)=O)C(=O)N[C@H]2C(=O)N[C@H]3C(=O)N[C@H](C(=O)N[C@H](C(=O)O)c4cc(O)cc(O)c4-c4cc3ccc4O)[C@H](O)c3ccc(c(Cl)c3)Oc3cc2cc(c3O[C@@H]2O[C@H](CO)[C@@H](O)[C@H](O)[C@H]2O[C@H]2C[C@](C)(N)[C@H](O)[C@H](C)O2)Oc2ccc(cc2Cl)[C@H]1O [VCM, vancomycin]
MIC [2, 3]: 0.5 µg/mL (≈ 0.345 µM) | MIC ([2]; COL, MRSA): 0.5 µg/mL (≈ 0.345 µM) | MIC [2, 4]: 0.5 µg/mL (≈ 0.345 µM) | MIC ([2]; ISA12-1, MRSA): 0.5 µg/mL (≈ 0.345 µM) | MIC ([2]; ISA12-2, MRSA): 0.5 µg/mL (≈ 0.345 µM) | MIC ([2]; ISA35-1, MRSA): 1 µg/mL (≈ 0.69 µM) | MIC ([2]; ISA37-1, MSSA): 1 µg/mL (≈ 0.69 µM) | MIC ([2]; ISA49-1, MSSA): 1 µg/mL (≈ 0.69 µM) | MIC ([2]; ISA51-1, MSSA): 1 µg/mL (≈ 0.69 µM) | MIC ([2]; ISA56-3, MRSA): 2 µg/mL (≈ 1.38 µM) | MIC ([2]; ISA58-1, MRSA): 1 µg/mL (≈ 0.69 µM) | MIC ([2]; ISA62-1, MRSA): 1 µg/mL (≈ 0.69 µM) | MIC ([2]; ISA73-1, MSSA): 1 µg/mL (≈ 0.69 µM) | MIC ([2]; KBSA32, MRSA): 0.5 µg/mL (≈ 0.345 µM) | MIC ([2]; KBSA34, MRSA): 1 µg/mL (≈ 0.69 µM) | MIC ([2]; KBSA72, MRSA): 1 µg/mL (≈ 0.69 µM) | MIC ([2]; KBSA96, MRSA): 1 µg/mL (≈ 0.69 µM) | MIC ([2]; KBSA171, MRSA): 1 µg/mL (≈ 0.69 µM) | MIC ([2]; KSA24, MRSA): 1 µg/mL (≈ 0.69 µM) | MIC ([2]; KSA31, MRSA): 1 µg/mL (≈ 0.69 µM) | MIC ([2]; KSA36, MRSA): 1 µg/mL (≈ 0.69 µM) | MIC [2, 5]: 1 µg/mL (≈ 0.69 µM) | MIC [2, 6]: 1 µg/mL (≈ 0.69 µM) | MIC ([2]; MW2, CA-MRSA): 0.5 µg/mL (≈ 0.345 µM) | MIC ([2]; N315, MRSA): 0.5 µg/mL (≈ 0.345 µM)
